Here are results for four molecules from PubChem BioAssay (NCI).

Among the test systems are DLD-1 colon; DMS 114 small cell lung; DMS 273 small cell lung; LXFL 529 NSCLC; M19-MEL melanoma; XF 498 CNS; SN12K1 renal; RXF-631 renal; P388 leukemia; P388/ADR leukemia.
Common to all, as to test: NCI tumour cell line growth inhibition, 48 h

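A five-concentration, 48-hour dose response in 96-well plates underlies each endpoint, interpolated linearly between surrounding concentrations. TGI: total growth inhibition.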 Some results are limits rather than exact numbers.

On to `CC(C)C(Nc1c2ccccc2[n+](C)c2ccccc12)C(=O)O` (stereo unspecified), for which the TGI in the experiment on DLD-1 colon, with DMS 114 small cell lung, with DMS 273 small cell lung, in the experiment with LXFL 529 NSCLC, in the experiment with M19-MEL melanoma and with XF 498 CNS was over 100 µM throughout.

Consider `Nc1ncnc2c1ncn2C1C(O)C=C(CO)C1O` (stereo unspecified), for which the TGI with DLD-1 colon was over 625 µM; with DMS 114 small cell lung, over 625 µM; with DMS 273 small cell lung, over 625 µM; in the experiment with M19-MEL melanoma it was over 625 µM; with SN12K1 renal, over 625 µM; in the experiment on XF 498 CNS, under 0.0625 µM.

Take `O=c1c2ccccc2n2nnc3ccc(NCCNCCO)c1c32`: the TGI in the experiment on DLD-1 colon was determined as 15.4 µM; with DMS 114 small cell lung it was 13.4 µM; with DMS 273 small cell lung it was 11.1 µM; with LXFL 529 NSCLC it was 14.2 µM; with M19-MEL melanoma, 8.61 µM; in the experiment on RXF-631 renal it was 9.36 µM. This molecule showed a TGI in the experiment with XF 498 CNS of 25.2 µM.

`Cc1cc(C)c(C2=NO[C@@H]3[C@H]2C(=O)C=C2N(Cc4ccccc4)CCO[C@@]23O)c(C)c1`: the TGI in the experiment on DLD-1 colon, in the experiment on DMS 273 small cell lung, in the experiment with M19-MEL melanoma, in the experiment on P388 leukemia, in the experiment on P388/ADR leukemia and with SN12K1 renal was over 100 µM in each case. This molecule gave a TGI with XF 498 CNS of over 100 µM.
